Assay results from patent publication US20260284066A1, “TYK2 INHIBITORS AND COMPOSITIONS AND METHODS THEREOF” (LYNK PHARMACEUTICALS CO. LTD., priority 2023, published 2026).
Values after ≈ are worked out from the molar mass of the structure shown. Read-outs that look alike come from different tables or passages of the source.

Columns and labels:
[1] = Microsomal metabolic stability assay; format: in vitro ADME, human; settings: human, liver microsomes, pH 7.4, human liver microsomes 0.5 mg/mL; for microsomal CLint at 1 µM: read-out: Human LM Clint; for half-life at 1 µM: read-out: Human LM T½
Method: Microsomal Metabolic Stability Assay
Microsomes were pre-incubated with test compound or control compounds for 5 min at 37° C. in 100 mM potassium phosphate buffer, pH 7.4, 1.0 mM EDTA. The reaction was initiated by addition of 15 μL of the NADPH regenerating system to 30 μL of each incubation mixture per time point. The final incubation condition was composed of 0.5 mg/mL microsomal protein, 1 μM test article/positive control, 2 mM NADPH. The 0-minute samples were prepared by addition of a 30 μL aliquot of each incubation mixture to 135 μL quench reagent to precipitate proteins. And then a 15 μL aliquot of the NADPH regenerating system was added. At 5, 15, 30 and 45 minutes, the reaction will be stopped by the addition of cold acetonitrile solution containing internal standard. The samples taken at all time points were centrifuged at 5000×g for 15 minutes. 50 μL of supernatant are taken into 96-well assay plates pre-added with 50 μL ultrapure water, and then analyzed by LC/MS/MS.
Concentrations of test articles, control compounds in the samples were determined by using LC/MS/MS method. Plotting of the chromatograms and peak area integrations are carried out by Analyst (AB Sciex).
In the determination of the in vitro elimination constant (ke) of the control compounds, the analyte/internal standard peak area ratios will be converted to percentage remaining (% Remaining) with the following equation:
The CLint of microsomes was calculated using the formula: CLint (mic)=0.693/T1/2/mg microsome protein per mL. The slope was measured by the natural logarithm of the percentage of the residual compound and time, T1/2 was calculated according to the following formula.

[2] = biological target: T1, TYK2-JH2 domain (Homo sapiens, UniProt P29597); test: Binding activity test for TYK2 JH2 domain (Tb-antibody/tracer FRET); settings: for JAK1/TYK2 selectivity: ratio of JAK1 JH2 to TYK2 JH2 binding IC50
T1 construct: JAK1-JH2 domain or TYK2-JH2 domain enzyme

[3] = biological target: T2, JAK1-JH2 domain (Homo sapiens, UniProt P23458); test: Binding activity test for JAK1 JH2 domain (Tb-antibody/tracer FRET)
T2 construct: JAK1-JH2 domain or TYK2-JH2 domain enzyme
Method: Binding Activity test for JH2 domain of JAK and TYK2
75 nL DMSO for high control and low control.
For low control, add 5 μL/well assay buffer. […] After enzyme system prepared, add 5 μL of Tb-antibody solution into each wells of assay plate. […] After Tb-antibody added, also add 5 μL of tracer into the assay plate. […] Incubate for 60 mins at 25° C. firstly and then continue to incubate the plate at 4° C. overnight. Read by envision in FRET mode. The Luminescence value was recorded by a multi-label reader Envision (PerkinElmer). Inhibition Rate was calculated relative to vehicle (DMSO) treated control wells using following formula:
wherein • RLU_compound=the relative light unit of cells treated with test compounds • RLU_low control=the relative light unit of medium with DMSO only • RLU_high control=the relative light unit of cells treated with DMSO only

[4] = Kinetic solubility; format: physicochemical; settings: aqueous buffer, 100 mM pH 7.4 phosphate buffer, 1% DMSO, room temperature, read-out: Kinetics Solubility_PBS7.4
Method: Aliquots of 8 μL of reference and test compound stock solutions (10 mM/5 mM) are added into 792 μL of 100 mM pH 7.4 phosphate buffer. The final DMSO concentration is 1%. Sample tubes are shaken for 2 hours at 1000 rpm at room temperature. Samples are centrifuged at 12000 rpm for 10 min to precipitate un-dissolved particles. And transfer the supernatants to a new tube or plate. Add 5 μL of samples (no diluted, 10 times diluted and 100 times diluted) and standard curve samples to 95 μL of ACN containing IS for LC-MS/MS analysis.

[5] = read-out: TYK2 JH2 Binding IC50
[6] = read-out: JAK1 JH2 Binding IC50

T1 sequence (P29597 589-875 limits assumed): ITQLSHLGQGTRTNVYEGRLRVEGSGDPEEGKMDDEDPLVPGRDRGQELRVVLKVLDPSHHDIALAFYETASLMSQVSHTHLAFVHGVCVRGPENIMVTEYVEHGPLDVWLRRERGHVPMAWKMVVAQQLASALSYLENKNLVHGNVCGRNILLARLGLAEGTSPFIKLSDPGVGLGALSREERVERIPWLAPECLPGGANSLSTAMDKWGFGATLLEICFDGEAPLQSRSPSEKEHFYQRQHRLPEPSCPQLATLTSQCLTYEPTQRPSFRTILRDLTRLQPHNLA
T2 sequence (P23458 583-855 limits assumed): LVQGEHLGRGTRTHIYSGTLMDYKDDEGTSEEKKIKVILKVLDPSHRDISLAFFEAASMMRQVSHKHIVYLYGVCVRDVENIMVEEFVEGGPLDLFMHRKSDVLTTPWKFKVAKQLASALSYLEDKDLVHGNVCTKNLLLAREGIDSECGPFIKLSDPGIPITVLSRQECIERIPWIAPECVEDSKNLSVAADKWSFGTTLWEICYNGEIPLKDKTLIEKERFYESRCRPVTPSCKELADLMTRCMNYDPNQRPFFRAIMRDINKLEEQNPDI

Row | Compound | microsomal CLint at 1 µM [1] | half-life at 1 µM [1] | JAK1/TYK2 selectivity [2] | IC50 [2, 5] | IC50 [3, 6] | solubility kinetic at 2 h [4] | IC50 ([2]; TYK2 JH2 Binding IC50(nM)) | IC50 ([3]; JAK1 JH2 Binding IC50(nM))
1 | [2H]C([2H])([2H])NC(=O)c1cnc(Nc2ccc(N3CCOCC3)cn2)nc1Nc1ccn2ncc(C#N)c2c1OC [Example 7, 4-((3-Cyano-4-methoxypyrazolo[1,5-a]pyridin-5-yl)amino)-N-(methyl-d)-2-((5-morpholinopyridin-2-yl)amino)pyrimidine-5-carboxamide] | 28.1 µL/min/mg | 49.3 min | 26.60 | 0.404 nM | 10.7 nM |  |  | 
2 | [2H]C([2H])([2H])NC(=O)c1cnc(NC(=O)C2CC2)nc1Nc1ncc2cnn(CC(C)(F)F)c2c1OC [Example 28, 2-(Cyclopropanecarboxamido)-4-((1-(2,2-difluoropropyl)-7-methoxy-1H-pyrazolo[4,3-c]pyridin-6-yl)amino)-N-(methyl-d3)pyrimidine-5-carboxamide] |  |  |  | > 298 nM | > 298 nM | 20.6 µM (≈ 9.55 µg/mL) |  | 
3 | [2H]C([2H])([2H])NC(=O)c1cnc(NC(=O)NCC)cc1Nc1ncc2cnn(CC(C)(F)F)c2c1OC [Example 32, 4-((1-(2,2-Difluoropropyl)-7-methoxy-1H-pyrazolo[4,3-c]pyridin-6-yl)amino)-6-(3-ethylureido)-N-(methyl-d3)nicotinamide] |  |  | >175.4 | 1.7 nM | > 298 nM |  |  | 
4 | COC(=O)c1cnc(NC(=O)C2CC2)cc1Nc1ncn2ncc(C#N)c2c1OC [Example 19, Methyl 4-((3-cyano-4-methoxypyrazolo[1,5-c]pyrimidin-5-yl)amino)-6-(cyclopropanecarboxamido)nicotinate] |  |  | 13.51 | 1.63 nM | 22.1 nM |  |  | 
5 | [2H]C([2H])([2H])NC(=O)c1cnc(NC(=O)C2CC2)cc1Nc1ccc2ncn(CC(C)(F)F)c2c1OC [Example 31, 6-(Cyclopropanecarboxamido)-4-((1-(2,2-difluoropropyl)-7-methoxy-1H-benzo[d]imidazol-6-yl)amino)-N-(methyl-d3)nicotinamide] |  |  | 69.3 | 0.3 nM | 20.8 nM |  |  | 
6 | [2H]C([2H])([2H])NC(=O)c1cnc(Nc2ccc(N3CCOCC3)cn2)cc1Nc1ccn2ncc(C#N)c2c1OC [Example 6, 4-((3-Cyano-4-methoxypyrazolo[1,5-a]pyridin-5-yl)amino)-N-(methyl-d3)-6-((5-morpholinopyridin-2-yl)amino)nicotinamide] | 28.4 µL/min/mg | 48.8 min | 4.48 | 0.157 nM | 0.703 nM |  |  | 
7 | CCC(=O)c1cnc(NC(=O)C2CC2)cc1Nc1ccc2cn[nH]c2c1OC [Example 34, N-(4-((7-methoxy-1H-indazol-6-yl)amino)-5-propionylpyridin-2-yl)cyclopropanecarboxamide] | 480 µL/min/mg | 2.89 min | 8.0 | 3.94 nM | 31.7 nM |  |  | 
8 | [2H]C([2H])([2H])NC(=O)c1cnc(Nc2ccc(F)cn2)cc1Nc1ncc2cnn(CC(C)(F)F)c2c1OC [Example 21, 4-((1-(2,2-Difluoropropyl)-7-methoxy-1H-pyrazolo[4,3-c]pyridin-6-yl)amino)-6-((5-fluoropyridin-2-yl)amino)-N-(methyl-d3)nicotinamide] | 16.3 µL/min/mg | 84.8 min | 353.07 | 0.396 nM | 140 nM |  |  | 
9 | [2H]C([2H])([2H])NC(=O)c1cnc(NC(=O)C2CC2)cc1Nc1ncc2ncn(CC(F)(F)F)c2c1OC [Example 25, 6-(Cyclopropanecarboxamido)-4-((7-methoxy-1-(2,2,2-trifluoroethyl)-1H-imidazo[4,5-c]pyridin-6-yl)amino)-N-(methyl-d3)nicotinamide] |  |  | 268.51 | 0.174 nM | 46.7 nM |  |  | 
10 | [2H]C([2H])([2H])NC(=O)c1cnc(NC(=O)[C@H]2C[C@H]2F)cc1Nc1ncc2cnn(CC(C)(F)F)c2c1OC [Example 11, 4-((1-(2,2-Difluoropropyl)-7-methoxy-1H-pyrazolo[4,3-c]pyridin-6-yl)amino)-6-((1R,2R)-2-fluorocyclopropane-1-carboxamido)-N-(methyl-d3)nicotinamide] | 2.86 µL/min/mg | 485 min | 227.16 | 0.325 nM | 73.8 nM |  |  | 
11 | [2H]C([2H])([2H])NC(=O)c1cnc(NC(=O)C2CC2)cc1Nc1ncc2cnn(COCC[Si](C)(C)C)c2c1OC [Example 1, 6-(Cyclopropanecarboxamido)-4-((7-methoxy-1-((2-(trimethylsilyl)ethoxy)methyl)-1H-pyrazolo[4,3-c]pyridin-6-yl)amino)-N-(methyl-d3)nicotinamide] |  |  | >32.07 |  |  |  | 9.31 nM | > 298 nM
12 | [2H]C([2H])([2H])NC(=O)c1cnc(Nc2cc(CN3CCOCC3)n(C)n2)cc1Nc1ccc2cnn(CC#N)c2c1OC [Example 12, 4-((1-(Cyanomethyl)-7-methoxy-1H-indazol-6-yl)amino)-N-(methyl-d3)-6-((1-methyl-5-(morpholinomethyl)-1H-pyrazol-3-yl)amino)nicotinamide] |  |  | 8.55 | 0.189 nM | 1.62 nM | 7.21 µM (≈ 3.85 µg/mL) |  | 
13 | [2H]C([2H])([2H])NC(=O)c1cnc(NC(=O)NC)cc1Nc1ncc2cnn(CC(C)(F)F)c2c1OC [Example 33, 4-((1-(2,2-Difluoropropyl)-7-methoxy-1H-pyrazolo[4,3-c]pyridin-6-yl)amino)-N-(methyl-d3)-6-(3-methylureido)nicotinamide] |  |  | >139.8 | 2.14 nM | > 298 nM |  |  | 
14 | [2H]C([2H])([2H])NC(=O)c1cnc(NC(=O)C2CC2)cc1Nc1ncn2ncc(C(O)C(F)(F)F)c2c1OC (stereo not shown) [Example 30, 6-(Cyclopropanecarboxamido)-4-((4-methoxy-3-(2,2,2-trifluoro-1-hydroxyethyl)pyrazolo[1,5-c]pyrimidin-5-yl)amino)-N-(methyl-d3)nicotinamide] |  |  | 822.4 | 0.134 nM | 110 nM |  |  | 
15 | [2H]C([2H])([2H])NC(=O)c1cnc(NC(=O)[C@@H]2C[C@@H]2F)cc1Nc1ncc2cnn(CC(C)(F)F)c2c1OC [Example 8, 4-((1-(2,2-Difluoropropyl)-7-methoxy-1H-pyrazolo[4,3-c]pyridin-6-yl)amino)-6-((1S,2S)-2-fluorocyclopropane-1-carboxamido)-N-(methyl-d3)nicotinamide] |  |  | 561.99 | 0.288 nM | 162 nM |  |  | 
16 | COC(=O)c1cnc(NC(=O)C2CC2)cc1Nc1ncc2cnn(CC(C)(F)F)c2c1OC [Example 26, Methyl 6-(cyclopropanecarboxamido)-4-((1-(2,2-difluoropropyl)-7-methoxy-1H-pyrazolo[4,3-c]pyridin-6-yl)amino)nicotinate] |  |  | 443.32 | 0.26 nM | 115 nM |  |  | 
17 | [2H]C([2H])([2H])NC(=O)c1cnc(NC(=O)[C@@H]2C[C@@H]2F)cc1Nc1ncn2ncc(C(C)C(F)(F)F)c2c1OC (stereo partly drawn) [Example 13, 6-((1S,2S)-2-fluorocyclopropane-1-carboxamido)-4-((4-methoxy-3-(1,1,1-trifluoropropan-2-yl)pyrazolo[1,5-c]pyrimidin-5-yl)amino)-N-(methyl-d3)nicotinamide] | 25.4 µL/min/mg | 54.5 min | >175.38 | 1.7 nM | > 298 nM |  |  | 
